Source: patent publication US20250296971A1, “GASTRIC INHIBITORY PEPTIDE RECEPTOR LIGANDS” (priority 2021, published 2025)
Where two headings read alike, the source gives them in different places. *1 amine or outer side, *2 acyl side, *3 side chain or, on linkers, in order; H or OH if unused. Where a SMILES comes first, the peptide text is derived from it. Bridges are numbered along the chain shown (N, C = ends). [ ]: non-standard residue; d: D form. The star is where a group is joined. X5 = NC(=O)[C@H](CCCCNC(=O)CN1CCN(CC(=O)O)CCN(CC(=O)O)CCN(CC(=O)O)CC1)NC(=O)CCC(=O)NCCCOCCOCCOCCCN*; X11 = O=C(CN1CCN2CCN3CCN(CC1)CC(=O)[O][In]([O]C(=O)C2)[O]C(=O)C3)NCCCOCCOCCOCCCN*; X3 = O=C(O)CN1CCN(CC(=O)O)CCN(CC(=O)NCCCOCCOCCOCCCN*)CCN(CC(=O)O)CC1; Trp(5-Cl) = N[C@@H](Cc1c[nH]c2ccc(Cl)cc12)C(=O)O; Phe(3,4-Cl2) = N[C@@H](Cc1ccc(Cl)c(Cl)c1)C(=O)O; Phe(3,5-Cl2) = N[C@@H](Cc1cc(Cl)cc(Cl)c1)C(=O)O; Pyridine(2,6-diCH2) = c1cc(C[*:1])nc(C[*:2])c1; Phe(4-Cl) = N[C@@H](Cc1ccc(Cl)cc1)C(=O)O; 1Nal = N[C@@H](Cc1cccc2ccccc12)C(=O)O; mXylylene = c1cc(C[*:1])cc(C[*:2])c1; X7 = c1cc(CSCCN[*:2])cc(C[*:1])c1; Hyp = O=C(O)[C@@H]1C[C@@H](O)CN1; Suc = O=C(CCC(=O)[*:2])[*:1]; αMeS = C[C@](N)(CO)C(=O)O; Thp = NC1(C(=O)O)CCOCC1; Aib = CC(C)(N)C(=O)O; Sar = CNCC(=O)O

Molecular target: T1, GIPR (CHO-K1-hGIPR cells) (Homo sapiens, UniProt P48546)
T1 construct: host or cells: CHO-K1
T1 sequence (P48546 22-466): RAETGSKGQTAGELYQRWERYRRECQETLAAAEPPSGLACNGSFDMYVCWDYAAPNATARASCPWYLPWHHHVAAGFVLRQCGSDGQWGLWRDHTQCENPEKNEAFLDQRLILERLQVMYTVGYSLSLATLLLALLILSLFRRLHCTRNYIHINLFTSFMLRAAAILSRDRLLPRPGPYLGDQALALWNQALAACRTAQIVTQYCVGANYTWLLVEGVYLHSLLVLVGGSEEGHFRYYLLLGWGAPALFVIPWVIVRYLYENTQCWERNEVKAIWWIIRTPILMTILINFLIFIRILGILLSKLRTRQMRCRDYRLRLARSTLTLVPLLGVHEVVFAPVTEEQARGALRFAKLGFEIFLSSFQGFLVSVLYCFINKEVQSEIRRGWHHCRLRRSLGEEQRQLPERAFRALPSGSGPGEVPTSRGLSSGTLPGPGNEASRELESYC
Experiment: FACS binding assay
Settings: read-out: pIC50 Category (converted)
How it was run: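 Median fluorescence in the APC channel, measured on washed CHO-K1 cells overexpressing human GIPR, was fitted by four-parameter logistic regression against peptide concentration to yield EC50 or IC50 values. Secondary labelling used APC-streptavidin (1 μg/mL, 30 min, ice).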

[1] = competition with 20 nM GIP-057, 4° C. for 1 hour
[2] = competition with 20 nM GIP-057, 4° C., 1 hour

Row | Compound | IC50 [1] [µM] | IC50 [2] [µM]
1 | CC[C@H](C)[C@@H]1NC(=O)[C@H](CC(C)C)NC(=O)[C@H](C)NC(=O)[C@@H](NC(=O)[C@H](CC(C)C)NC(=O)[C@H](CCC(=O)O)NC(=O)[C@@H]2CCCN2C(=O)[C@H](Cc2c[nH]c3ccccc23)NC(=O)[C@H](C)NC(=O)[C@H](CC(=O)O)NC(=O)[C@H](Cc2ccc(O)cc2)NC(=O)[C@@H](N)CCSC)CSCc2cccc(c2)CSC[C@@H](C(N)=O)NC1=O [GIP-333] (H-MYDAWPELCALIC-NH2; linker 9-13 via mXylylene) | > 1 | –
2 | CC[C@H](C)[C@@H]1NC(=O)[C@H](CC(C)C)NC(=O)C(C)(C)NC(=O)[C@@H](NC(=O)[C@H](CC(C)C)NC(=O)[C@H](CCC(=O)O)NC(=O)[C@@H]2C[C@@H](O)CN2C(=O)[C@H](Cc2c[nH]c3ccccc23)NC(=O)[C@H](Cc2c[nH]c3ccccc23)NC(=O)CCC(=O)O)CSCc2cccc(c2)CSC[C@@H](C(N)=O)NC1=O [GIP-319, HO-Succinyl-Trp-Trp-Hyp-Glu-Leu-[Cys(3MeBn)-Aib-Leu-Ile-Cys]-NH2] (Suc-WW[Hyp]ELC[Aib]LIC-NH2; linker 6-10 via mXylylene) | 0.1 to 0.794 | –
3 | CC(=O)N[C@@H](CC(=O)O)C(=O)N[C@@H](Cc1c[nH]c2ccccc12)C(=O)N[C@@H](Cc1cccc2ccccc12)C(=O)N1CCC[C@H]1C(=O)N[C@@H](CCC(=O)O)C(=O)N[C@H](CC(C)C)C(=O)N[C@H]1CSCc2cccc(c2)CSC[C@@H](C(=O)NCCCOCCOCCOCCCNC(=O)CCC(=O)N[C@@H](CCCCNC(=O)CN2CCN(CC(=O)O)CCN(CC(=O)O)CCN(CC(=O)O)CC2)C(N)=O)NC(=O)[C@H](C(C)C)NC(=O)[C@H](CC(C)C)NC(=O)[C@H](C)NC1=O [GIP-138, Ac-Asp-Trp-1Ni-Pro-Glu-leu-[Cys(3MeBn)-Ala-Leu-Val-Cys]-Ttds-Lys(DOTA)-NH2] (Ac-DW[1Nal]PE[dL]CALVC-X5; linker 7-11 via mXylylene) | – | 0.01 to 0.0794
4 | CC[C@H](C)[C@@H]1NC(=O)[C@H](CC(C)C)NC(=O)C(C)(C)NC(=O)[C@@H](NC(=O)[C@@H](CC(C)C)NC(=O)[C@H](CCC(=O)O)NC(=O)CN(C)C(=O)[C@H](Cc2c[nH]c3ccc(Cl)cc23)NC(=O)[C@H](Cc2c[nH]c3ccccc23)NC(=O)[C@H](CC(=O)O)NC(=O)CCC(=O)NCCCOCCOCCOCCCNC(=O)CN2CCN3CCN4CCN(CC2)CC(=O)[O][In]([O]C(=O)C3)[O]C(=O)C4)CSCc2cccc(c2)CSCCNC1=O [GIP-152, InDOTA-Ttds-Asp-Trp-5Clw-Nmg-Glu-leu-[Cys(3MeBn)-Aib-Leu-Ile-AET]] ({X11-Suc}-DW[Trp(5-Cl)][Sar]E[dL]C[Aib]LI; linker 7-C via X7) | – | < 0.01
5 | CC[C@H](C)[C@@H]1NC(=O)[C@H](CC(C)C)NC(=O)C2(CCOCC2)NC(=O)[C@@H](NC(=O)[C@@H](CC(C)C)NC(=O)[C@H](CCC(=O)O)NC(=O)[C@@H]2C[C@@H](O)CN2C(=O)[C@H](Cc2c[nH]c3ccc(Cl)cc23)NC(=O)[C@H](Cc2ccc(Cl)cc2)NC(=O)[C@H](CC(=O)O)NC(C)=O)CSCc2cccc(n2)CSC[C@@H](C(N)=O)NC1=O [GIP-210, Ac-Asp-Pcf-5Clw-Hyp-Glu-leu-[Cys(2Lut)-Thp-Leu-Ile-Cys]-NH2] (Ac-D[Phe(4-Cl)][Trp(5-Cl)][Hyp]E[dL]C[Thp]LIC-NH2; linker 7-11 via Pyridine(2,6-diCH2)) | – | < 0.01
6 | CC(=O)N[C@@H](CC(=O)O)C(=O)N[C@@H](Cc1c[nH]c2ccccc12)C(=O)N[C@@H](Cc1c[nH]c2ccc(Cl)cc12)C(=O)N1C[C@H](O)C[C@H]1C(=O)N[C@@H](CCC(=O)O)C(=O)N[C@H](CC(C)C)C(=O)N[C@H]1CSCc2cccc(n2)CSC[C@@H](C(N)=O)NC(=O)[C@H](CCCNC(=N)N)NC(=O)[C@H](CC(C)C)NC(=O)C2(CCOCC2)NC1=O [GIP-353, Ac-Asp-Trp-5Clw-Hyp-Glu-leu-[Cys(2Lut)-Thp-Leu-Arg-Cys]-NH2] (Ac-DW[Trp(5-Cl)][Hyp]E[dL]C[Thp]LRC-NH2; linker 7-11 via Pyridine(2,6-diCH2)) | > 1 | –
7 | CC[C@H](C)[C@@H]1NC(=O)[C@H](CC(C)C)NC(=O)[C@H](CCC(=O)O)NC(=O)[C@@H](NC(=O)[C@@H](CC(C)C)NC(=O)[C@H](CCC(=O)O)NC(=O)[C@@H]2C[C@@H](O)CN2C(=O)[C@H](Cc2c[nH]c3ccc(Cl)cc23)NC(=O)[C@H](Cc2c[nH]c3ccccc23)NC(=O)[C@H](CC(=O)O)NC(C)=O)CSCc2cccc(n2)CSC[C@@H](C(N)=O)NC1=O [GIP-235, Ac-Asp-Trp-5Clw-Hyp-Glu-leu-[Cys(2Lut)-Glu-Leu-Ile-Cys]-NH2] (Ac-DW[Trp(5-Cl)][Hyp]E[dL]CELIC-NH2; linker 7-11 via Pyridine(2,6-diCH2)) | – | < 0.01
8 | CC[C@H](C)[C@@H]1NC(=O)[C@H](CC(C)C)NC(=O)[C@](C)(CO)NC(=O)[C@@H](NC(=O)[C@@H](CC(C)C)NC(=O)[C@H](CCC(=O)O)NC(=O)[C@@H]2CCCN2C(=O)[C@H](Cc2c[nH]c3ccc(Cl)cc23)NC(=O)[C@H](Cc2c[nH]c3ccccc23)NC(=O)[C@H](CC(=O)O)NC(=O)CCC(=O)NCCCOCCOCCOCCCNC(=O)CN2CCN3CCN4CCN(CC2)CC(=O)[O][In]([O]C(=O)C3)[O]C(=O)C4)CSCc2cccc(c2)CSCCNC1=O [GIP-149, InDOTA-Ttds-Asp-Trp-5Clw-Pro-Glu-leu-[Cys(3MeBn)-Ams-Leu-Ile-AET]] ({X11-Suc}-DW[Trp(5-Cl)]PE[dL]C[αMeS]LI; linker 7-C via X7) | – | < 0.01
9 | CC[C@H](C)[C@@H]1NC(=O)[C@H](CC(C)C)NC(=O)C2(CCOCC2)NC(=O)[C@@H](NC(=O)[C@@H](CC(C)C)NC(=O)[C@H](CCC(=O)O)NC(=O)[C@@H]2C[C@@H](O)CN2C(=O)[C@H](Cc2ccc(Cl)c(Cl)c2)NC(=O)[C@H](Cc2c[nH]c3ccccc23)NC(=O)[C@H](CC(=O)O)NC(C)=O)CSCc2cccc(n2)CSC[C@@H](C(N)=O)NC1=O [GIP-213, Ac-Asp-Trp-Eaa-Hyp-Glu-leu-[Cys(2Lut)-Thp-Leu-Ile-Cys]-NH2] (Ac-DW[Phe(3,4-Cl2)][Hyp]E[dL]C[Thp]LIC-NH2; linker 7-11 via Pyridine(2,6-diCH2)) | – | < 0.01
10 | CC(C)C[C@@H]1NC(=O)C2(CCOCC2)NC(=O)[C@@H](NC(=O)[C@@H](CC(C)C)NC(=O)[C@H](CCC(=O)O)NC(=O)[C@@H]2C[C@@H](O)CN2C(=O)[C@H](Cc2c[nH]c3ccc(Cl)cc23)NC(=O)[C@H](Cc2c[nH]c3ccccc23)NC(=O)[C@H](CC(=O)O)NC(=O)CCC(=O)NCCCOCCOCCOCCCNC(=O)CN2CCN(CC(=O)O)CCN(CC(=O)O)CCN(CC(=O)O)CC2)CSCc2cccc(n2)CSC[C@@H](C(N)=O)NC(=O)[C@H](Cc2ccccc2)NC1=O [GIP-388, DOTA-Ttds-Asp-Trp-5Clw-Hyp-Glu-leu-[Cys(2Lut)-Thp-Leu-Phe-Cys]-NH2] ({X3-Suc}-DW[Trp(5-Cl)][Hyp]E[dL]C[Thp]LFC-NH2; linker 7-11 via Pyridine(2,6-diCH2)) | 0.01 to 0.0794 | –
11 | CC[C@H](C)[C@@H]1NC(=O)[C@H](CC(C)C)NC(=O)C(C)(C)NC(=O)[C@@H](NC(=O)[C@H](CC(C)C)NC(=O)[C@H](CCC(=O)O)NC(=O)[C@@H]2CCCN2C(=O)[C@H](Cc2cccc3ccccc23)NC(=O)[C@H](Cc2c[nH]c3ccccc23)NC(=O)[C@H](CC(=O)O)NC(C)=O)CSCc2cccc(c2)CSC[C@@H](C(=O)NCCCOCCOCCOCCCNC(=O)CCC(=O)N[C@@H](CCCCNC(=O)CN2CCN(CC(=O)O)CCN(CC(=O)O)CCN(CC(=O)O)CC2)C(N)=O)NC1=O [GIP-074, Ac-Asp-Trp-1Ni-Pro-Glu-Leu-[Cys(3MeBn)-Aib-Leu-Ile-Cys]-Ttds-Lys(DOTA)-NH2] (Ac-DW[1Nal]PELC[Aib]LIC-X5; linker 7-11 via mXylylene) | – | < 0.01
12 | CC[C@H](C)[C@@H]1NC(=O)[C@H](CCC(=O)O)NC(=O)C2(CCOCC2)NC(=O)[C@@H](NC(=O)[C@@H](CC(C)C)NC(=O)[C@H](CCC(=O)O)NC(=O)[C@@H]2C[C@@H](O)CN2C(=O)[C@H](Cc2c[nH]c3ccc(Cl)cc23)NC(=O)[C@H](Cc2c[nH]c3ccccc23)NC(=O)[C@H](CC(=O)O)NC(C)=O)CSCc2cccc(n2)CSC[C@@H](C(N)=O)NC1=O [GIP-231, Ac-Asp-Trp-5Clw-Hyp-Glu-leu-[Cys(2Lut)-Thp-Glu-Ile-Cys]-NH2] (Ac-DW[Trp(5-Cl)][Hyp]E[dL]C[Thp]EIC-NH2; linker 7-11 via Pyridine(2,6-diCH2)) | – | < 0.01
13 | CC[C@H](C)[C@@H]1NC(=O)[C@H](CC(C)C)NC(=O)C2(CCOCC2)NC(=O)[C@@H](NC(=O)[C@@H](CC(C)C)NC(=O)[C@H](CCC(=O)O)NC(=O)[C@@H]2C[C@@H](O)CN2C(=O)[C@H](Cc2cc(Cl)cc(Cl)c2)NC(=O)[C@H](Cc2c[nH]c3ccccc23)NC(=O)[C@H](CC(=O)O)NC(C)=O)CSCc2cccc(n2)CSC[C@@H](C(N)=O)NC1=O [GIP-264, Ac-Asp-Trp-Egn-Hyp-Glu-leu-[Cys(2Lut)-Thp-Leu-Ile-Cys]-NH2] (Ac-DW[Phe(3,5-Cl2)][Hyp]E[dL]C[Thp]LIC-NH2; linker 7-11 via Pyridine(2,6-diCH2)) | 0.01 to 0.0794 | –
14 | CC[C@H](C)[C@@H]1NC(=O)[C@H](CC(C)C)NC(=O)C(C)(C)NC(=O)[C@@H](NC(=O)[C@@H](CC(C)C)NC(=O)[C@H](CCC(=O)O)NC(=O)[C@@H]2CCCN2C(=O)[C@H](Cc2c[nH]c3ccccc23)NC(=O)[C@H](Cc2c[nH]c3ccccc23)NC(=O)CCC(=O)O)CSCc2cccc(c2)CSC[C@@H](C(N)=O)NC1=O [GIP-258, HO-Succinyl-Trp-Trp-Pro-Glu-leu-[Cys(3MeBn)-Aib-Leu-Ile-Cys]-NH2] (Suc-WWPE[dL]C[Aib]LIC-NH2; linker 6-10 via mXylylene) | 0.01 to 0.0794 | –
